Measurements as given in patent US8747362B2, “Microneedle device” (Hisamitsu Pharmaceutical Co., Inc, priority 2009, dated 2014).

Legend:
[1] = Viscosity measurement of carrier (coating agent) by micron-sample viscometer; assay type: physicochemical; conditions: 25° C., average of 10
Procedure: • Material: Polylactic acid having a weight average molecular weight of about 80,000, Height: 500 μm, Density: 625 needles/cm^2, Formulation area of a microneedle base: 1 cm^2/patch (b) Metal Mask Plate • Pitch: 400 μm, Mask thickness: 100 μm, Opening: square shape (one side: 250 μm) (c) Environmental Setting: Room Temperature (25° C.)
The concentration of octreotide acetate and the concentration of propylene glycol or glycerin were set as shown in Table 3 and Table 4, and the materials were set in a rotating/revolving mixer to prepare a carrier (a coating agent). The viscosity of the obtained carrier (the coating agent) was measured 10 times by use of a micron-sample viscometer (RHEOSENSE INC., Micron Sample-Viscometer/Rheometer-on-a-chip VROCTM); calculated average values are shown in. Table 3 and Table 4.

[2] = Content (amount deposited) of octreotide acetate per patch of microneedle device, BCA method; assay type: physicochemical; conditions: average of 10
Procedure: • Material: Polylactic acid having a weight average molecular weight of about 80,000, Height: 500 μm, Density: 625 needles/cm^2, Formulation area of a microneedle base: 1 cm^2/patch (b) Metal Mask Plate • Pitch: 400 μm, Mask thickness: 100 μm, Opening: square shape (one side: 250 μm) (c) Environmental Setting: Room Temperature (25° C.) The concentration of octreotide acetate and the concentration of propylene glycol or glycerin were set as shown in Table 3 and Table 4, and the materials were set in a rotating/revolving mixer to prepare a carrier (a coating agent). Application of the carrier (the coating agent) to microneedles was performed by a predetermined method. More specifically, the carrier the coating agent) was swept by a spatula to fill openings of a metal mask with the carrier. Microneedles (needles) were inserted in the openings thus filled, and then taken out therefrom, and subsequently, the carrier (the coating agent) thus applied on the microneedles was extracted by purified water. By a BCA method (an octreotide standard), the content (an amount deposited) of octreotide acetate per one patch (sheet) of a microneedle device was measured 10 times; calculated average values are shown in Table 3 and Table 4.

[3] = carrier: octreotide acetate 20 / glycerin 80 % by weight
[4] = carrier: octreotide acetate 20 / propylene glycol 80 % by weight
[5] = carrier: octreotide acetate 30 / glycerin 70 % by weight
[6] = carrier: octreotide acetate 35 / glycerin 65 % by weight
[7] = carrier: octreotide acetate 40 / glycerin 60 % by weight
[8] = carrier: octreotide acetate 40 / propylene glycol 60 % by weight
[9] = carrier: octreotide acetate 50 / glycerin 50 % by weight
[10] = carrier: octreotide acetate 50 / propylene glycol 50 % by weight
[11] = carrier: octreotide acetate 60 / glycerin 40 % by weight
[12] = carrier: octreotide acetate 60 / propylene glycol 40 % by weight
[13] = carrier: octreotide acetate 70 / propylene glycol 30 % by weight
[14] = carrier: octreotide acetate 80 / propylene glycol 20 % by weight

C[C@@H](O)[C@@H]1NC(=O)[C@H](CCCCN)NC(=O)[C@@H](Cc2c[nH]c3ccccc23)NC(=O)[C@H](Cc2ccccc2)NC(=O)[C@@H](NC(=O)[C@H](N)Cc2ccccc2)CSSC[C@@H](C(=O)N[C@H](CO)[C@@H](C)O)NC1=O [Octreotide acetate, octreotide acetate]
Viscosity Avg. [1, 3]: 2900 cps
Viscosity Avg. [1, 4]: 200 cps
Viscosity Avg. [1, 5]: 9000 cps
Viscosity Avg. [1, 6]: 12000 cps
Viscosity Avg. [1, 7]: 15000 cps
Viscosity Avg. [1, 8]: 1600 cps
Viscosity Avg. [1, 9]: 21000 cps
Viscosity Avg. [1, 10]: 5400 cps
Viscosity Avg. [1, 11]: 27000 cps
Viscosity Avg. [1, 12]: 15000 cps
Viscosity Avg. [1, 13]: 45000 cps
Viscosity Avg. [1, 14]: 133000 cps
Content Avg. [2, 3]: 6 μg/patch
Content Avg. [2, 4]: 4 μg/patch
Content Avg. [2, 5]: 39 μg/patch
Content Avg. [2, 6]: 53 μg/patch
Content Avg. [2, 7]: 89 μg/patch
Content Avg. [2, 8]: 36 μg/patch
Content Avg. [2, 9]: 169 μg/patch
Content Avg. [2, 10]: 121 μg/patch
Content Avg. [2, 11]: 149 μg/patch
Content Avg. [2, 12]: 243 μg/patch
Content Avg. [2, 13]: 237 μg/patch
Content Avg. [2, 14]: 97 μg/patch
